Test results reported in patent US20020076728A1, “Engineering affinity ligands for macromolecules” (priority 1997, published 2002).
“And” between values parts separate entries of the source, which are not always exact repeats. Equal entries are not always repeated. Ends that are not written are not given here.

What was measured:
M13 phage = experiment: Stability of M13 in various organic solvents (phage survival); settings: for surviving phage: incubation for 20 minutes with 80% solvent
Excerpt: Thus, if phage display libraries are used, it is of interest to determine whether organic solvents disrupt the phage.

[1] = side-chain ionizable group of the amino acid type in proteins; cited from earlier work
tPA = tPA (Homo sapiens, UniProt P00750); experiment: 15-amino acid segment of #109 bound to chromatographic support, tPA binding; settings: bound to a chromatographic support; initial studies
Sequence of tPA (P00750 36-562): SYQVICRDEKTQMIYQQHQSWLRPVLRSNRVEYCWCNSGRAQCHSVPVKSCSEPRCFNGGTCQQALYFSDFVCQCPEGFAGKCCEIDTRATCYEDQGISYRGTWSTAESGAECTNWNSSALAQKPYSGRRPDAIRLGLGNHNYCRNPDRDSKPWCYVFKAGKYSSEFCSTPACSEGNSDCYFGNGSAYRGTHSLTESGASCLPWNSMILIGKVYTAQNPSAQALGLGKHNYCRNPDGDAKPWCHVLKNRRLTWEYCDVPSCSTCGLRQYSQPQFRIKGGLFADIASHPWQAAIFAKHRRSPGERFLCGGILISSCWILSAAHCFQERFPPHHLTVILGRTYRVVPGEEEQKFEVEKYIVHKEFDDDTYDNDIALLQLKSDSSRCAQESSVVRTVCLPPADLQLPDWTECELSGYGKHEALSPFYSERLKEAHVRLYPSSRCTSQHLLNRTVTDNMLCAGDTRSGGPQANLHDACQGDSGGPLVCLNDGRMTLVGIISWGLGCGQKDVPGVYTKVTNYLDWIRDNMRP
Excerpt: As noted above, almost all of the variegation in amino acid positions used in building the CMTI library occurred between two cyteines at positions 3 and 10 of CMTI-I (see Table 3). In the parental CMTI protein, these cysteines form disulfide bonds with other cysteine residues elsewhere in the protein (see SEQ ID NO: 1), however with the successful isolation of affinity ligands from the CMTI library, a secondary library was conceptualized which was based on variegating a truncated 15-amino acid segment of the isolate #109 (see amino acids 1-15 of SEQ ID NO: 12). If the C3 and C10 cysteines of these members formed a disulfide bond, then a constrained loop having tPA binding properties might be obtained.

[2] = target: T1, recombinant human tissue-type plasminogen activator (human, UniProt P00750 36-562); experiment: peptide bound to a chromatographic support
T1 construct: Bought; immobilised on Reacti-Gel agarose beads for phage work, in solution for column tests; also called tPA
T1 sequence (P00750 36-562 limits assumed): as the sequence (P00750 36-562) above

[3] = 2% solvent by volume in Luria broth
[4] = 5% solvent by volume in Luria broth
[5] = 10% solvent by volume in Luria broth
[6] = 20% solvent by volume in Luria broth
[7] = 80% solvent by volume in Luria broth
[8] = 40% solvent by volume in Luria broth

## CC(C)O [IPA, isopropyl alcohol]
M13 phage
  surviving phage: no surviving phage

## N[C@@H](Cc1c[nH]cn1)C(=O)O [His, Histidine]
[1]
  pKa range: 6.0-7.0

## NCCCC[C@H](N)C(=O)O [Lys]
[1]
  pKa range: 10.4-11.1

## N[C@@H](CS)C(=O)O [Cys (not in disulfide)]
[1]
  pKa range: 9.0-9.5

## C[S+](C)[O-] [DMSO, dimethylsulfoxide]
M13 phage; [3]
  Survival after 20 min. (%): 84%
  Survival after 60 min. (%): 89%
M13 phage; [4]
  Survival after 20 min. (%): 68%
  Survival after 60 min. (%): 86%
M13 phage; [5]
  Survival after 20 min. (%): 96%
  Survival after 60 min. (%): 86%
M13 phage; [6]
  Survival after 20 min. (%): 73%
  Survival after 60 min. (%): 82%
M13 phage; [7]
  Survival after 20 min. (%): 1%
  Survival after 60 min. (%): >1%

## CC#N [ACN, acetonitrile]
M13 phage; [5]
  Survival after 20 min. (%): 84%
  Survival after 60 min. (%): 74%
M13 phage; [6]
  Survival after 20 min. (%): 80%
  Survival after 60 min. (%): 91%
M13 phage; [8]
  Survival after 20 min. (%): 92%
  Survival after 60 min. (%): 89%
M13 phage; [7]
  Survival after 20 min. (%): 30% and 37%
  Survival after 60 min. (%): 8% and 3%

## CN(C)C=O [DMF, dimethylformamide]
M13 phage
  surviving phage: no surviving phage

## N[C@@H](CC(=O)O)C(=O)O [Asp, aspartic acid]
[1]
  pKa range: 3.9-4.0

## CCO [EtOH, ethanol]
M13 phage
  surviving phage: no surviving phage

## CO [MeOH, methanol]
M13 phage; [5]
  Survival after 20 min. (%): 110%
  Survival after 60 min. (%): 80%
M13 phage; [6]
  Survival after 20 min. (%): 93%
  Survival after 60 min. (%): 84%
M13 phage; [8]
  Survival after 20 min. (%): 92%
  Survival after 60 min. (%): 84%

## N[C@@H](CCC(=O)O)C(=O)O [Glu]
[1]
  pKa range: 4.3-4.5

## N=C(N)NCCC[C@H](N)C(=O)O [Arg]
[1]
  pKa range: 12.0

## 15-amino acid segment derived from affinity ligand isolate #109: truncated 15-amino acid segment of isolate #109 (amino acids 1-15 of SEQ ID NO: 12), C3-C10 disulfide loop (RLCPKTDLGCMKDSD; also: C3-C10 disulfide stated only as a possibility)
tPA
  binding of immobilized loop to tPA: bound to tPA

B1: 15-amino acid segment derived from affinity ligand isolate #109 (peptide)
peptide: RLCPKTDLGCMKDSD
modifications: also: C3-C10 disulfide stated only as a possibility
notes: also called truncated 15-amino acid segment of the isolate #109; C3-C10 loop
[2]
  binding result: binds
